Results as given in patent publication US20110092367A1, “Herbicidal Compositions Comprising 4-amino-3,6-dichloropyridine-2-carboxylic Acid” (BASF SE, priority 2008, published 2011).

Tests used:
Sinapis alba = assay: Field trial Example 1, successive application: damage on SINAL; format: in vivo; conditions: DAT 25/DALT 10
Source text: (§1) Aminiopyralid was used as commercial aquaeous solution having an active ingredient concentration of 240 g/l (Milestone™). Metazachlor was used as a commercial suspension concentrate having an active ingredient concentration of 500 g/l (Butisan S®).
(§2) The performance of aminopyralid applied as an alone treatment at 15, 30 and 50 g a.i./ha applied as an early post emergence treatment and an post emergence treatment in comparison to two different applications including metazachlor at 500 g a.i./ha as an early post emergence application in succession of aminopyralid as a post emergence application at 15 and 30 g a.i./ha was assessed in an oilseed rape field trials.
(§3) The early post emergence treatment was applied by means of fine distributed nozzles at the growth stage (GS) of the crop BBCH 11-12.
(§4) The post emergence treatment was applied by means of fine distributed nozzles at the growth stage (GS) of the crop BBCH 13-14.
(§5) The test period extended over the autumn and spring season (205 days).
(§6) In the following experiments, the herbicidal activity for the individual herbicide compounds (solo application) and of the herbicidal succession was assessed 4 times:
(§7) The evaluation for the damage on undesired weeds caused by the chemical compositions was carried out using a scale from 0 to 100%, compared to the untreated control plants. Here, 0 means no damage and 100 means complete destruction of the plants.

Galium aparine = assay: Field trial Example 1, successive application: damage on GALAP; format: in vivo
Source text: as §1, §2, §3, §4, §5, §6, §7

With Nc1cc(Cl)nc(C(=O)O)c1Cl [aminopyralid, 4-amino-3,6-dichloropyridine-2-carboxylic acid] the “damage on SINAL” value (Sinapis alba; 15 g ai/ha, treatment A early post emergence) was 13%, the “damage on SINAL” value (Sinapis alba; 15 g ai/ha, treatment B post emergence) was 0% and the “damage on SINAL” value (Sinapis alba; 30 g ai/ha, treatment A early post emergence) was 50%. For the same compound, the “damage on SINAL” value (Sinapis alba; 30 g ai/ha, treatment B post emergence) was 0%, the “damage on SINAL” value (Sinapis alba; 50 g ai/ha, treatment A early post emergence) was 67% and the “damage on SINAL” value (Sinapis alba; 50 g ai/ha, treatment B post emergence) was 0%. The “damage on GALAP” value (Galium aparine; 15 g ai/ha, treatment A early post emergence, DAT 25/DALT 10) was 67%, the “damage on GALAP” value (Galium aparine; 15 g ai/ha, treatment A early post emergence, DAT 65/DALT 50) was 77% and the “damage on GALAP” value (Galium aparine; 15 g ai/ha, treatment A early post emergence, DAT 176/DALT 161) was 86%. For the same compound, the “damage on GALAP” value (Galium aparine; 15 g ai/ha, treatment B post emergence, DAT 25/DALT 10) was 72%, the “damage on GALAP” value (Galium aparine; 15 g ai/ha, treatment B post emergence, DAT 65/DALT 50) was 78% and the “damage on GALAP” value (Galium aparine; 15 g ai/ha, treatment B post emergence, DAT 176/DALT 161) was 82%. The “damage on GALAP” value (Galium aparine; 30 g ai/ha, treatment A early post emergence, DAT 25/DALT 10) was 92%, the “damage on GALAP” value (Galium aparine; 30 g ai/ha, treatment A early post emergence, DAT 65/DALT 50) was 96% and the “damage on GALAP” value (Galium aparine; 30 g ai/ha, treatment A early post emergence, DAT 176/DALT 161) was 96%. The “damage on GALAP” value (Galium aparine; 30 g ai/ha, treatment B post emergence, DAT 25/DALT 10) was 72%, the “damage on GALAP” value (Galium aparine; 30 g ai/ha, treatment B post emergence, DAT 65/DALT 50) was 78% and the “damage on GALAP” value (Galium aparine; 30 g ai/ha, treatment B post emergence, DAT 176/DALT 161) was 86%. The “damage on GALAP” value (Galium aparine; 50 g ai/ha, treatment A early post emergence, DAT 25/DALT 10) was 99%, the “damage on GALAP” value (Galium aparine; 50 g ai/ha, treatment A early post emergence, DAT 65/DALT 50) was 99% and the “damage on GALAP” value (Galium aparine; 50 g ai/ha, treatment A early post emergence, DAT 176/DALT 161) was 100%. For the same compound, the “damage on GALAP” value (Galium aparine; 50 g ai/ha, treatment B post emergence, DAT 25/DALT 10) was 87%, the “damage on GALAP” value (Galium aparine; 50 g ai/ha, treatment B post emergence, DAT 65/DALT 50) was 87% and the “damage on GALAP” value (Galium aparine; 50 g ai/ha, treatment B post emergence, DAT 176/DALT 161) was 89%. The “damage on GALAP” value (Galium aparine; aminopyralid 15 g ai/ha, treatment A, DAT 205/DALT 190) was 88%, the “damage on GALAP” value (Galium aparine; aminopyralid 15 g ai/ha, treatment B, DAT 205/DALT 190) was 87% and the “damage on GALAP” value (Galium aparine; aminopyralid 30 g ai/ha, treatment A, DAT 205/DALT 190) was 93%. The “damage on GALAP” value (Galium aparine; aminopyralid 30 g ai/ha, treatment B, DAT 205/DALT 190) was 91%, the “damage on GALAP” value (Galium aparine; aminopyralid 50 g ai/ha, treatment A, DAT 205/DALT 190) was 100% and the “damage on GALAP” value (Galium aparine; aminopyralid 50 g ai/ha, treatment B, DAT 205/DALT 190) was 93%.
